Values of other authors in patent US20050272687A1, “Stable S-adenosyl-l-methionine” (priority 2004, published 2005).
Values belong to the molecule of their own block, whether it stands above or below them.

What was measured:
[1] = tested on: S-adenosyl-1-methionine-dependent methyltransferases
[2] = tested on: nucleolar 2-O-methyltransferase
[3] = in vivo
[4] = same conditions as in example 10 (room temperature, light, closed bottle), after 4 months
[5] = tested on: alcoholic liver cirrhosis; details: oral; as compared with a placebo treated group
[6] = during the course of the clinical trial
[7] = tested on: beta-adrenergic

SMILES: C[S+](CC[C@H](N)C(=O)O)C[C@H]1O[C@@H](n2cnc3c(N)ncnc32)[C@H](O)[C@@H]1O.C[S+](CC[C@H](N)C(=O)O)C[C@H]1O[C@@H](n2cnc3c(N)ncnc32)[C@H](O)[C@@H]1O.O=S(=O)([O-])CCCCS(=O)(=O)[O-] (stereo partly drawn) [S-adenosyl-1-methionine 1,4 butanedisulfonate]
oral absorption compared with other salts [3]: better absorbed orally than any other salts
deterioration [4]: 43.9%

SMILES: C[S+](CC[C@H](N)C(=O)[O-])C[C@H]1O[C@@H](n2cnc3c(N)ncnc32)[C@H](O)[C@@H]1O (stereo partly drawn) [S-adenosyl-1-methionine]
overall mortality and/or progression to liver transplant [5]: 29% vs 12%
(R,S) S-adenosyl-1-methionine share after epimerization [6]: 55%
(S,S) S-adenosyl-1-methionine share after epimerization [6]: 45%

SMILES: CC(C)NCC(O)COc1cccc2ccccc12 (stereo not drawn) [propranolol]
potency of L-form relative to D-enantiomer [7]: 100 times

Now from value to molecule:

inhibition of enzyme-catalyzed transmethylation reactions [1]: potent inhibitor
SMILES: C[S@@+](CC[C@@H](N)C(=O)O)C[C@H]1O[C@@H](n2cnc3c(N)ncnc32)[C@H](O)[C@@H]1O (racemic) [(+)-SAM, (R,S)-S-adenosyl-1-methionine]

tightness of enzyme binding relative to (R,S)-S-adenosyl-1-methionine [2]: 10 fold
SMILES: C[S@@+](CC[C@H](N)C(=O)O)C[C@H]1O[C@@H](n2cnc3c(N)ncnc32)[C@H](O)[C@@H]1O [(S,S)-S-adenosyl-1-methionine]

deterioration [4]: 92.9%
SMILES: C[S+](CC[C@H](N)C(=O)O)C[C@H]1O[C@@H](n2cnc3c(N)ncnc32)[C@H](O)[C@@H]1O.Cc1ccc(S(=O)(=O)[O-])cc1 (stereo partly drawn) [S-adenosyl-1-methionine tosylate]
